Experimental data taken from PMC10671052, “Naphthyl-Substituted Indole and Pyrrole Carboxylic Acids as Effective Antibiotic Potentiators—Inhibitors of Bacterial Cystathionine γ-Lyase” (International Journal of Molecular Sciences, 2023).

Columns and labels:
in vitro = in vitro ADME; details: human, plasma, pH 7.4, Fraction bound fb
Protocol: Plasma protein binding was assessed using RED device inserts with built-in cellulose acetate dialysis membranes (molecular weight cutoff: 8 kDa). The final concentration of the test compound in human plasma was 5 μM. The samples were prepared by placing 300 μL of human plasma into the plasma compartment of the RED device and 500 μL of phosphate-buffered saline (pH 7.4) into the buffer compartment. The RED device was fixed to a shaker, placed in a CO2 (5%) incubator, and incubated for 6 h at 37 °C. After an equilibration step, 100 μL aliquots were taken from each compartment; 100 μL of plasma was added to the buffer compartment aliquot and 100 μL of buffer was added to the plasma compartment aliquot. After mixing, 600 μL of acetonitrile containing an internal standard was added. […] All compounds were tested in duplicate. Fraction bound fb was determined via the following equation: fb (%) = [1 − (Cb/Cp)] × 100, where Cb is the concentration of an analyte in the buffer compartment (μM), and Cp is the concentration of the analyte in the plasma compartment (μM).

[1] = LogD7.4, miniaturized shake flask method; format: physicochemical; details: 1-octanol / 100 mM sodium phosphate buffer pH 7.4
Protocol: Coefficients of distribution between 1-octanol and 100 mM sodium phosphate buffer (pH 7.4) were determined by the miniaturized shake flask method. Namely, 5 μL of a 10 mM compound’s solution in DMSO was dissolved in 245 μL of 1-octanol saturated with phosphate buffer. Next, 500 μL of phosphate buffer saturated with 1-octanol was added, followed by mixing for 3 h. […] After that, 50 μL of the octanol phase (top layer) was aspirated and diluted with 500 μL of 1-octanol saturated with phosphate buffer. Then, the remaining octanol phase was removed; 50 μL of the buffer layer was aspirated and diluted with 500 μL of phosphate buffer saturated with 1-octanol. Both the octanol and phosphate buffer samples were analyzed by LC–MS/MS. The distribution coefficient was determined according to the following equation: logD7.4 = log10 (peak area for octanol sample/peak area for buffer sample). […] All compounds were tested in triplicate.

[2] = test system: A. baumannii GIMC5509:ABT-52Ts19; test: MIC of antibiotics alone and with potentiators, clinical isolate
Protocol: (§1) Overnight (ON) culture of a specific strain was grown in the liquid Luria–Bertani nutrient medium (LB broth, BD Difco) for 18 h at 37 °C, with agitation at 180 rpm using an Innova 44R orbital shaker (Eppendorf, Hamburg, Germany). After a certain period, 50 µL of the ON culture was transferred into 5 mL of the LB medium and grown for 3 h at 37 °C with agitation. Growth in the liquid medium was assessed by means of turbidity of the suspension, measured using a Densi-La-Meter II densitometer (Erba Lachema s.r.o., Brno, Czech Republic). Then, the bacterial suspension was diluted to the concentration 10^6 cells/mL with sterile LB and used as a seed culture [38, 39].
(§2) For the assessment of MICs, 96-well microtiter plates were utilized at 200 µL of a medium per well. Each well was filled with 100 µL of the seed culture. After that, 10 µL of a solution of each tested synthetic compound (potentiators) was added into each experimental well. Finally, 90 µL of twofold serial dilutions of an antibiotic in a sterile LB was added into individual wells.
(§3) As a positive control, we set up wells with 100 µL of the bacterial culture and 100 µL of the sterile LB medium. […] Negative-control wells contained 200 µL of the sterile medium. The plates were incubated in a thermostat for 18–20 h at 37 °C. The bacterial growth was assessed as optical density at 600 nm on a CLARIOstar microplate reader (BMG LABTECH GmbH, Ortenberg, Germany)).

[3] = molecular target: T1, human cystathionine-γ-lyase (hCSE) (Homo sapiens, UniProt P32929); test: IC50 assay: inhibition of H2S production by purified hCSE, WSP5 fluorescent probe; format: biochemical; details: purified hCSE 0.02 μM, 100 μM L-cysteine, WSP5 probe, mean ± SD; read-out: IC50 biochemical assay hCSE
T1 construct: His6-TEV (N, cleaved yes); host or cells: E. coli
T1 sequence (P32929 whole entry): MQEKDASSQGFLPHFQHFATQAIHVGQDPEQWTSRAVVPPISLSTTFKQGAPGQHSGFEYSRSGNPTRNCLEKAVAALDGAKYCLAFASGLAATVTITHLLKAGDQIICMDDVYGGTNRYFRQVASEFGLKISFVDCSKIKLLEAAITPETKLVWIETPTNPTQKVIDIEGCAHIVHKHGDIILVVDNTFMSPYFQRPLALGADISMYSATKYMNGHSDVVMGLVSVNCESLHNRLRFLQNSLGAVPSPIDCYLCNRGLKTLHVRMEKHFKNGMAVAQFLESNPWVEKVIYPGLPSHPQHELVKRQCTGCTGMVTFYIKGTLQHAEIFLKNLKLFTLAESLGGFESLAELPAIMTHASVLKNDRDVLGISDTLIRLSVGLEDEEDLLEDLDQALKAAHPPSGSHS
How it was run: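 Purified recombinant enzyme (0.02 μM; E. coli-expressed) preincubated 40 min at 30 °C with inhibitor in 50 mM sodium phosphate pH 8.0, 10 μM PLP, 0.1% Tween 20 and 1.2 μM WSP-5. Started with 100 μM L-cysteine; H2S fluorescence (ex 500/em 530 nm) followed 12 h. IC50 from four-parameter fit, mean of ≥2 experiments.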

physchem = format: physicochemical; details: 25 °C, pH 7.4, aqueous buffer, kinetic from dmso stock, Solubility
Protocol: A stock solution of a compound (10 mM in DMSO, 10 μL) was added to 990 μL of 100 mM sodium phosphate buffer (pH 7.4) and incubated at 25 °C for 2 h with constant shaking. The suspension was filtered through the PVDF membrane filter (Merck Millipore, Burlington, MA, USA). To 320 µL of the filtrate, 80 µL of acetonitrile was added and mixed. The mixture was transferred to a vial and analyzed by ultra-high-performance liquid chromatography (UHPLC) with UV detection. Concentrations were calculated from a 5-point calibration curve. The calibration range was 1 to 100 μM. The controls were diclofenac and nicardipine. All compounds were tested in triplicate.

[4] = test system: P. aeruginosa GIMC5016:PA1840/36/2015; test: MIC of antibiotics alone and with potentiators, clinical isolate
Protocol: as §1, §2, §3

[5] = A. baumannii GIMC5509:ABT-52Ts19, potentiator 50 µg/mL
[6] = P. aeruginosa GIMC5016:PA1840/36/2015, potentiator 50 µg/mL

In the case of `O=C(O)c1cc2ccccc2n1Cc1cccc2ccccc12` [Compound 2a], the fraction unbound at 6 h, 5 μM (in vitro) is reported as under 0.01, the “Measured logD7.4” value ([1]; listed as 2а) is reported as 2.14±0.14 and the “Measured logD7.4” value ([1]; listed as lead compound) is reported as 1–3. For the same compound, the “MIC of Tacillin in combination with potentiator” value ([2]; A. baumannii GIMC5509:ABT-52Ts19, piperacillin + tazobactam, potentiator 50 µg/mL) was 64 µg/mL, the “MIC of Cefepim in combination with potentiator” value [2, 5] was 256 µg/mL and the “MIC of Meropenem in combination with potentiator” value [2, 5] was 32 µg/mL. For the same compound, the IC50 [3] was 251 ± 16.6 µM, the solubility at 2 h (physchem) was over 100 µM and the “MIC of Tacillin in combination with potentiator” value ([4]; P. aeruginosa GIMC5016:PA1840/36/2015, piperacillin + tazobactam, potentiator 50 µg/mL) was 32 µg/mL. For the same compound, the “MIC of Cefepim in combination with potentiator” value [4, 6] was 32 µg/mL, the “MIC of Gentamicin in combination with potentiator” value [4, 6] was over 512 µg/mL and the “MIC of Meropenem in combination with potentiator” value [4, 6] was 8 µg/mL.
